Measured values published in patent publication US20250303006A1, “BIOCOMPATIBLE ANTISEPTIC COMPOSITION CONTAINING 9-HYDROXYCALABAXANTHONE AND/OR RELATED XANTHONES” (UNIVERSITAT DE LES ILLES BALEARS, priority 2022, published 2025).

Key:
C. albicans = assay: Candida albicans culture and proliferation assay; format: cell-based; conditions: 0.003% HCX, 24 h
Experimental: C. albicans was grown from frozen stocks in LB broth (Scharlab), at 37° C. under aerobic conditions in an orbital shaker (180 rpm). […] Fungal suspension without treatment served as negative control (C−). […] The fungal growth rate (μ) was calculated during the exponential growth phase following the equation ln ODt−ln OD0=μ×(t−t0) (n=3).

[1] = tested on: human gingival fibroblast cells; assay: LDH cytotoxicity in immortalized human gingival fibroblasts; format: cell-based
Experimental: Cells were seeded in 48-well plates at a density of 2×10^4 cells/well. When the cells reached confluence, they were treated with different concentrations of HCX, and cytotoxicity was determined.
48 hours after seeding the iHGF cells in 48-well plates, cell inflammation was induced by means of adding 1 μg/ml of P. gingivalis lipopolysaccharide (LPS) (InvivoGen, San Diego, CA, USA) and the cells were treated with different concentrations of HCX (0.00002, 0.0002, 0.002%) in a fibroblast medium with 50 μg/ml of ascorbic acid (Sigma-Aldrich, St. Louis, MO, USA) for 48 hours. Images of the cells were taken with a bright field inverted microscope (Nikon Eclipse TS100) before treatment and 24 hours and 48 hours after treatment.
To estimate the cytotoxicity of the different concentrations of HCX, the presence of lactate dehydrogenase (LDH) in the culture media 48 h after pro-inflammatory stimulation with LPS and treatment with HCX was used as the cell death index. Following the manufacturer's instructions (Cytotoxicity Detection kit, Roche Diagnostics, Mannheim, Germany), LDH activity was determined spectrophotometrically after a 30-minute incubation at room temperature (RT) of 50 μl of culture media and 50 μl of the reaction mixture, measuring nicotinamide adenine dinucleotide (NADH) oxidation at 490 nm in the presence of pyruvate. Results were presented in relation to LDH activity of the media of the cells seeded without treatment (negative control, 0% cell death) and in relation to cells treated with 1% Triton X-100 (positive control, 100% death) using the following equation: Cytotoxicity (%)=[(expected value−negative control)/(positive control−negative control)]×100.
Different hydrogel formulations with and without 0.05% of HCX (HA, GelMa, Alginate and HPMC) and commercial gel containing 0.2% chlorhexidine and unmodified HA (Periokin Hyaluronic 1%, Laboratorios Kin, Commercial HA 0.2% CHX) were used for studies with gingival fibroblasts and S. epidermidis. Cells and bacteria without hydrogels served as negative control (C−). Gels at a concentration of 5% (v/v) were used for cell and bacterial studies.
Immortalized human gingival fibroblasts were cultured like in experiment 1 of section 1.2. The cells were treated with different hydrogel formulations with and without 0.05% of HCX (HA, GelMa, Alginate and HPMC) and commercial gel containing 0.2% chlorhexidine and unmodified HA (Periokin Hyaluronic 1%, Laboratorios Kin, commercial HA 0.2% CHX) in a fibroblast medium for 24 hours (n=4). Cell cytotoxicity was measured, like in experiment 1 of section 1.4.
16.1. […]
Immortalized human gingival fibroblasts were cultured like in experiment 1 of section 1.2. […] Cell cytotoxicity was measured, like in experiment 1 of section 1.4.

P. gingivalis = P. gingivalis culture and proliferation assay (growth rate, live/dead ratio); format: cell-based, Porphyromonas gingivalis; conditions: 0.002% HCX, 10 h
Experimental: Bacterium P. gingivalis (ATCC 33277TM, Manassas, VA) was cultured in brain heart infusion (BHI) broth (Scharlab, Barcelona, Spain), supplemented with 0.5 g/l of L-cysteine hydrochloride (Thermo Fisher Scientific), 5.0 mg/I of hemin (Thermo Fisher Scientific), and 1.0 mg/I of vitamin K (Thermo Fisher Scientific) in anaerobic conditions (10% H2, 10% CO2, and 80% N2) achieved with an anaerobiosis sachet and jar (Oxoid Anaerogen™, Thermo Fisher Scientific) at 37° C. for 24-72 h.
Bacteria P. gingivalis were cultured from existing frozen bacteria in BHI broth. After one night of incubation, 1 ml of bacterial suspension (˜3×10^8 bacteria/ml) was treated with different concentrations of HCX (0.00002, 0.0002, 0.002%) for 10 hours in anaerobic conditions (10% H2, 10% CO2, and 80% N2) at 37° C. At regular intervals (0 h and 10 h), optical density (OD) was measured at 600 nm to determine bacterial proliferation (PowerWave Ht, Biotekinstruments, Winooski, VT). […] The proportion of living bacteria/dead bacteria was determined using the LIVE/DEAD BacLight bacterial viability kit (Invitrogen, Thermo Fisher Scientific, Waltham, MA, USA), following the manufacturer's instructions.
Two different concentrations of HA formulated with HCX (0.025 and 0.05%) were used in the present study. […]

For `COc1c(O)cc2oc3cc4c(c(O)c3c(=O)c2c1CC=C(C)C)C=CC(C)(C)O4` [HCX, 9-hydroxycalabaxanthone], the fungal eliminated (C. albicans) was 22%, the “cytotoxicity evaluated by activity of lactate dehydrogenase (LDH) released into the medium” value ([1]; HCX 0.00002, 0.0002, 0.002%, 48 h, LPS-stimulated iHGF) was “not observed” and the “concentration that can be applied to cells and tissues” value ([1]; formulated in solution) was “up to 0.002%”. For the same molecule, the bacteria eliminated (P. gingivalis) was 100%.
